From patent publication US20230257385A1, “SALT AND SOLID FORMS OF TABERNANTHALOG” (priority 2021, published 2023)

How the values were obtained:
Type in all cases: physicochemical
[1] = Examination of variability of fusion temperature of sorbate Form A (DSC)
Description: The factors that were assessed to explain the observed variability in fusion temperature found amongst Form A samples were sample loading, preferred orientation and particle size/homogeneity (Table 271). A weak relationship between sample loading and melt onset was observed, the remainder of the factors examined, appeared to be unrelated.
DSC data were collected from 25 to 220C at a scan rate of at 10° C. min^−1 (Table 292).

[2] = Heat-up/cool down (HUCD) crystallization of the monofumarate salt (Experiment Reference 11)
Description: Separate portions of the tabernanthalog monofumarate salt (Pattern #1, Sample Reference 1, ca 75 mg, 1.0 wt.) were charged to separate vessels. The appropriate solvents (750 μl, 10.0 vol, refer to Table 106) were charged to the relevant vessels and subsequent charges of the appropriate co-solvent were made to accomplish dissolution at reflux. The solutions were cooled to 18 to 23° C. and allowed to stand undisturbed, until crystallization was judged complete. After this time the products were isolated by centrifugation, washed with recycled maturation solvent, dried under reduced pressure at 40° C. and analyzed by XRPD for evidence of alternative crystalline forms.

[3] = Heat-up/cool-down crystallisation screen of sorbate salt (Example 10, Experiments 5, 8); details: Experiment 5; for Observations (t = 1 @ T = 20° C.): Tabernanthalog sorbate salt (Form A) crystallised from binary solvents, solvent A 3.0 vol plus solvent B, one pair per sample; for XRPD (oven dried @ 40° C., 20 h) / XRPD (centrifuged, wet): heat-up/cool-down crystallisation from binary solvents; for XRPD (centrifuged, wet): wet pellet
Description: The relevant solvent (0.225 ml, 3.0 vol) was added to the appropriate vial and the suspensions were stirred and warmed to temperature. If dissolution was not observed, further solvent was added until the solute dissolved, or aliquots of a secondary co-solvent were added to complete dissolution. Once dissolved, the solutions were left to cool down and stand undisturbed under sub-ambient conditions for several days. After crystallisation was judged complete, the products were isolated by centrifugation and the pellets were dried at 40° C. under reduced pressure. Products from the crystallisation (wet and dry) were initially analysed by XRPD (9-minute method), further analyses of certain products were performed by ^1H NMR, DSC and TGA, if the diffraction pattern indicated differences.

[4] = DVS 0 to 90 to 0% RH (mass equilibrated); details: batch 8-A4
[5] = Targeted solubility of Tabernanthalog (native) in common solvents (Example 8, Experiment 1)
Description: The solutions were observed after cooling to determine if crystallization occurred on standing at room temperature.
To portions of tabernanthalog (native) (50 mg, 1 wt), were added 5 vol aliquots of the relevant solvent (Table 198). Observations were made at 20° C., 40° C. and reflux and the mixtures were cooled to 20° C. Contingent upon these findings, an additional 5 vol aliquot of the relevant solvent was added and the process was repeated until 20 vol of solvent was added in total.

[6] = DSC 25-220° C. at 10° C. min^−1, batches of sorbate salt Form A
[7] = DSC 25 to 220C at 10° C. min−1, tabernanthalog sorbate Form A samples
[8] = DSC melt endset, 25 to 220C at 10° C. min−1, tabernanthalog sorbate Form A samples
[9] = DSC melt peak, 25 to 220C at 10° C. min−1, tabernanthalog sorbate Form A samples

## C/C=C/C=C/C(=O)O.COc1ccc2c3c([nH]c2c1)CCN(C)CC3 [Experiment 6-Sample E1]
[1]; [6]
  Endset: 151.6 °C
  melt enthalpy: −105.7 Jg^−1
  melt onset: 145.0 °C
  peak: 148.8 °C
[1]; [7]
  melt enthalpy: −105.68 Jg-1
  melt onset: 145.00 °C
[1]; [8]
  Endset: 151.59 °C
[1]; [9]
  peak: 148.83 °C

## C/C=C/C=C/C(=O)O.COc1ccc2c3c([nH]c2c1)CCN(C)CC3 [Pattern A1270-20-V2]
[1]; [6]
  Endset: 152.0 °C
  melt enthalpy: −84.1 Jg^−1
  melt onset: 143.9 °C
  peak: 148.8 °C
[1]; [7]
  melt enthalpy: −84.09 Jg-1
  melt onset: 143.89 °C
[1]; [8]
  Endset: 151.95 °C
[1]; [9]
  peak: 148.83 °C

## COc1ccc2c3c([nH]c2c1)CCN(C)CC3.O=C(O)/C=C/C(=O)O [Sample 11-C]
[2]; form of product from HUCD crystallization of tabernanthalog fumarate Sample Reference 1 (Pattern #1), solvents per sample as in E1
  XRPD (oven dried): Pattern #6a
[2]; input tabernanthalog fumarate Sample Reference 1 (Pattern #1), Solvent A/B: 11-A acetone/water, 11-B acetonitrile/water, 11-C butanol/water, 11-D tBME/methanol, 11-E DCM/methanol, 11-F ethanol/water, 11-G methyl acetate/water/methanol, 11-H 2-propanol/water, 11-1 methanol, 11-J MEK/water, 11-K 2-MeTHF/methanol, 11-L THF/water, 11-M toluene/methanol, 11-N water, 11-O dioxane/water, 11-P CPME/methan
  Observations (t = 0 @ T = 20° C.): suspension

## C/C=C/C=C/C(=O)O.COc1ccc2c3c([nH]c2c1)CCN(C)CC3 [Experiment 6-Sample C1]
[1]; [6]
  Endset: 151.0 °C
  melt enthalpy: −100.5 Jg^−1
  melt onset: 144.7 °C
  peak: 148.8 °C
[1]; [7]
  melt enthalpy: −100.48 Jg-1
  melt onset: 144.66 °C
[1]; [8]
  Endset: 151.02 °C
[1]; [9]
  peak: 148.83 °C

## CC=CC=CC(=O)O.COc1ccc2c3c([nH]c2c1)CCN(C)CC3 [Experiment 5-Sample R]
[3]
  Observations (t = 1 @ T = 20° C.): Liquid
  XRPD (oven dried @ 40° C., 20 h): Form A
  XRPD (centrifuged, wet): Pattern #4

## CC=CC=CC(=O)O.COc1ccc2c3c([nH]c2c1)CCN(C)CC3 [Experiment 5-Sample H]
[3]
  Observations (t = 1 @ T = 20° C.): Partial
  XRPD (oven dried @ 40° C., 20 h): Form A
  XRPD (centrifuged, wet): Form A

## C/C=C/C=C/C(=O)O.COc1ccc2c3c([nH]c2c1)CCN(C)CC3 [Experiment 5-Sample Q]
[3]
  Observations (t = 1 @ T = 20° C.): Solid
  XRPD (oven dried @ 40° C., 20 h): Form A
  XRPD (centrifuged, wet): Pattern #1

## COc1ccc2c3c([nH]c2c1)CCN(C)CC3 [fumarate]
[4]; desorption, 5.0% RH
  DVS 0 to 90 to 0% RH (dm/dt <0.002%): 0.1179%
[4]; desorption, 10.0% RH
  DVS 0 to 90 to 0% RH (dm/dt <0.002%): 0.1551%
[4]; desorption, 15.0% RH
  DVS 0 to 90 to 0% RH (dm/dt <0.002%): 0.1857%
[4]; desorption, 20.0% RH
  DVS 0 to 90 to 0% RH (dm/dt <0.002%): 0.2126%
[4]; desorption, 25.0% RH
  DVS 0 to 90 to 0% RH (dm/dt <0.002%): 0.2387%
[4]; desorption, 30.0% RH
  DVS 0 to 90 to 0% RH (dm/dt <0.002%): 0.2656%
[4]; desorption, 40.0% RH
  DVS 0 to 90 to 0% RH (dm/dt <0.002%): 0.3210%
[4]; desorption, 50.0% RH
  DVS 0 to 90 to 0% RH (dm/dt <0.002%): 0.3797%
[4]; desorption, 60.0% RH
  DVS 0 to 90 to 0% RH (dm/dt <0.002%): 0.4515%
[4]; desorption, 70.0% RH
  DVS 0 to 90 to 0% RH (dm/dt <0.002%): 0.5442%
[4]; desorption, 80.0% RH
  DVS 0 to 90 to 0% RH (dm/dt <0.002%): 0.6827%
[4]; desorption, 90.0% RH
  DVS 0 to 90 to 0% RH (dm/dt <0.002%): 0.9766%
[4]; sorption, 0.0% RH
  DVS 0 to 90 to 0% RH (dm/dt <0.002%): DVS 0 to 90 to 0% RH (dm/dt <0.002%): 0.0 (0.0004%), 5.0
[4]; sorption, 5.0% RH
  DVS 0 to 90 to 0% RH (dm/dt <0.002%): 0.0627%
[4]; sorption, 10.0% RH
  DVS 0 to 90 to 0% RH (dm/dt <0.002%): 0.0957%
[4]; sorption, 15.0% RH
  DVS 0 to 90 to 0% RH (dm/dt <0.002%): 0.1397%
[4]; sorption, 20.0% RH
  DVS 0 to 90 to 0% RH (dm/dt <0.002%): 0.1778%
[4]; sorption, 25.0% RH
  DVS 0 to 90 to 0% RH (dm/dt <0.002%): 0.2093%
[4]; sorption, 30.0% RH
  DVS 0 to 90 to 0% RH (dm/dt <0.002%): 0.2401%
[4]; sorption, 40.0% RH
  DVS 0 to 90 to 0% RH (dm/dt <0.002%): 0.3145%
[4]; sorption, 50.0% RH
  DVS 0 to 90 to 0% RH (dm/dt <0.002%): 0.4051%
[4]; sorption, 70.0% RH
  DVS 0 to 90 to 0% RH (dm/dt <0.002%): 0.5451%
[4]; sorption, 80.0% RH
  DVS 0 to 90 to 0% RH (dm/dt <0.002%): 0.6660%
[4]; sorption, 90.0% RH
  DVS 0 to 90 to 0% RH (dm/dt <0.002%): 0.9766%

## C/C=C/C=C/C(=O)O.COc1ccc2c3c([nH]c2c1)CCN(C)CC3 [Experiment 6-Sample D1]
[1]; [6]
  Endset: 150.2 °C
  melt enthalpy: −105.7 Jg^−1
  melt onset: 144.0 °C
  peak: 148.0 °C
[1]; [7]
  melt enthalpy: −166.35 Jg-1
  melt onset: 144.03 °C
[1]; [8]
  Endset: 150.17 °C
[1]; [9]
  peak: 148.00 °C

## COc1ccc2c3c([nH]c2c1)CCN(C)CC3 [Tabernanthalog (native), 8-Methoxy-3-methyl-2,4,5,6-tetrahydro-1H-azepino[4,5-b]indole]
[5]; 2-Methyl THF, 5 vol
  Solid on cooling: Yes
  Solution at reflux: ✓
[5]; 2-Propanol, 5 vol
  Solid on cooling: Yes
  Solution at reflux: ✓
[5]; 19 common solvents
  solubility in common solvents at 20° C.: freely soluble in most common solvents investigated at 20° C., apart from tBME, heptane and water
[5]; 19 common solvents, various volumes
  solubility in common solvents at reflux: soluble in 16 solvents at reflux
[5]; Acetone, 5 vol
  Solid on cooling: Yes
  Solution at reflux: ✓
[5]; Acetonitrile, 10 vol
  Solid on cooling: Yes
  Solution at reflux: ✓
[5]; Chlorobenzene, 5 vol
  Solid on cooling: Yes
  Solution at reflux: ✓
[5]; Dichloromethane, 5 vol
  Solid on cooling: Yes
  Solution at reflux: ✓
[5]; Ethanol, 5 vol
  Solid on cooling: Yes
  Solution at reflux: ✓
[5]; Ethyl acetate, 10 vol
  Solid on cooling: Yes
  Solution at reflux: ✓
[5]; Ethyl formate, 10 vol
  Solid on cooling: Yes
  Solution at reflux: ✓
[5]; Isopropyl acetate, 15 vol
  Solid on cooling: Yes
  Solution at reflux: ✓
[5]; Methanol, 5 vol
  Solid on cooling: Yes
  Solution at reflux: ✓
[5]; Methyl acetate, 10 vol
  Solid on cooling: Yes
  Solution at reflux: ✓
[5]; Methylethyl ketone, 5 vol
  Solid on cooling: Yes
  Solution at reflux: ✓
[5]; Nitromethane, 5 vol
  Solid on cooling: Yes
  Solution at reflux: ✓
[5]; Tetrahydrofuran, 5 vol
  Solid on cooling: Yes
  Solution at reflux: ✓
[5]; Toluene, 15 vol
  Solid on cooling: Yes
  Solution at reflux: ✓
